In test [1] the target is T1, PKC-ε (Homo sapiens, UniProt Q02156).
T1 construct: from tissue; host or cells: blood of a human advanced Alzheimer's disease patient
T1 sequence (Q02156 1-737): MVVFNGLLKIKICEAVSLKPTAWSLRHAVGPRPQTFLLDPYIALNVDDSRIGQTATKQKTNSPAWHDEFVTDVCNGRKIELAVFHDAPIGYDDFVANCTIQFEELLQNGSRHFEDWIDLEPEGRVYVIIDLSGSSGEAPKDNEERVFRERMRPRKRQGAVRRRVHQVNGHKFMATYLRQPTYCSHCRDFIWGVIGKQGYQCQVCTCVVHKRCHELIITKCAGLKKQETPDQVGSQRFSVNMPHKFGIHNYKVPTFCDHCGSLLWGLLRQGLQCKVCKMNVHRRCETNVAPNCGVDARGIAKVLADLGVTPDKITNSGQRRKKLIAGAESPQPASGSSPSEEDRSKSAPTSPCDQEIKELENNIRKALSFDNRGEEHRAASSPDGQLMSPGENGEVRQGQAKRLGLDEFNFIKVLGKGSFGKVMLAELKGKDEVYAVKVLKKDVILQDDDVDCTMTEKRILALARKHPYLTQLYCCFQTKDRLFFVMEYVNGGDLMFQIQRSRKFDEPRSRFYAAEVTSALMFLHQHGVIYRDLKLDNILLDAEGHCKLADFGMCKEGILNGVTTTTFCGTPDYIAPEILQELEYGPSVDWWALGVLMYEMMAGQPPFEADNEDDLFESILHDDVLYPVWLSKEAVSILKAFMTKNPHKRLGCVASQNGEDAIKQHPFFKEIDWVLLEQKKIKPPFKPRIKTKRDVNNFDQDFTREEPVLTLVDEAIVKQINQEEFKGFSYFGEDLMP
In words: Compassionate use study: PKC-ε level in blood. The following applies: advanced AD patient blood, weekly dose of 25 μg/m^2, three consecutive weeks. In kind it is in vivo. The protocol:
(§1) FIG. 1 illustrates, inter alia, the level of PKCε in the blood of a human subject receiving 25 μg/m^2 of bryostatin as a single weekly dose for three consecutive weeks followed by cessation of dosing for one week and then two additional weeks of dosing at 25 μg/m^2.
(§2) FIG. 1 illustrates early results of a compassionate use (CU) study involving human advanced AD patients. […] The administration comprised three consecutive weeks of dosing followed by cessation for one week and then two additional weeks of dosing. Standard psychometric tests were used to measure cognitive functions and behaviors. The study also evaluated the relationship between the level of bryostatin's target, PKC epsilon, in the blood and the cognitive measurements.
(§3) Observed improvements included restored speech and word recognition, restored swallowing, lowered or prevented hallucinations, and improved complex motor functions. […] For example, the observed behavioral improvements included restoration of speech and word recognition, restoration of swallowing, disappearance of hallucinations, return of complex motor activity, including swimming, billiards, conversational interactions, and orientation in time and space.

In test [2] the test system is BDNF. In words: Brain BDNF by ELISA after i.v. bryostatin dosing regimens. In kind it is in vivo, mice. The following applies: for BDNF (% of Control): mouse brain, 24 h after last dose. The protocol:
FIG. 2 illustrates the increase in brain BDNF content in mice at 24 hours post intravenous administration of bryostatin. The dose of bryostatin administered is reflected by the number above each bar, while the number within each bar indicates the number of consecutive weeks mice receive a single weekly dose of bryostatin. Control mice were injected with vehicle. BDNF content for each test group was calculated as percent of the corresponding control. BDNF was measured in mouse brain by ELISA 24 h after the last dose. (Mean±SEM, n=3 except Cage 24 n=2, 2-tailed t-test).
Mouse studies were performed using bryostatin-i in accordance with the protocol described below. The following metrics were used to evaluate dosing regimens: induction of brain postsynaptic anchoring protein PSD-95, upregulation of BDNF levels in brain, minimal downregulation of PKC-ε levels, and elevation of brain and plasma concentrations of bryostatin. Groups of 2-3 mice were formed and housed in an approved research animal facility. Water was give ad libitum. A first study involved three groups of mice with animals in each group dosed weekly for 1, 2, 3, or 6 consecutive weeks. Each group had its own control group containing the same number of mice. In this study, mice in the first, second and third groups received an intravenous (i.v.) injection of 10 μg/m^2, 15 μg/m^2, and 25 μg/m^2 dose of bryostatin respectively. For each dose, mice in that group received a single injection of bryostatin weekly for predetermined number of consecutive weeks. Following dosing, mice were sacrificed and the blood and brain of each animal was collected for further analysis.
C57B/6 male mice weighing between 19-21 grams were obtained from Charles River and housed in cages, 1 mouse/cage in a vivarium at the Blanchette Rockefeller Neurosciences institute. Animals were allowed access to water ad libitum.
In these studies, bryostatin was administered intravenously (i.v.) by injection into the tail vein of a mouse. Stock solutions of bryostatin were prepared in dimethyl sulfoxide (DMSO). Prior to administration to a mouse, the stock DMSO solution of bryostatin was diluted to a predetermined concentration by dilution with phosphate buffered saline/saline (PBS/saline).
Three different dosing regimens (injection schedules) were compared. The dosing regimens tested were weekly dosing, dosing every other week (alternating weeks), and spaced or intermittent dosing.
The brain, whole blood, and plasma of mice in each dosing group as well as control mice was collected at 1 hour, 24 hours and 7 days after the last injection of bryostatin. PBMC's were isolated from blood and the brain, blood, plasma and PBMC's were frozen immediately using dry ice. Prior to analysis PBMC's were counted by diluting the sample (10 μl aliquot), 10-fold and the PBMC's counted using a Millipore Scepter cell counter. Every group of test animals had its own control group (N=3). Mice in the control group were injected with vehicle at a frequency similar to the dosing regimen and these animals were sacrificed and tested in parallel with mice in the test group.
Each measurement was performed four times (X4). BDNF levels were measured using ELISA and the concentration of protein PSD-95 was measured by Western Blot. High performance liquid chromatography-mass spectral analysis was used to measure the concentration of bryostatin in blood and brain samples based on a standard curve. Total protein concentrations were measured Coomassie Plus (Bradford) Protein Assay kit.
In this study, mice were administered 10 μg/m^2, 15 μg/m^2, and 25 μg/m^2 dose of bryostatin as a single injection once per week for the indicated number of consecutive weeks. […]
In general terms: In an ELISA, binding on a coated surface is turned into a signal by an enzyme label.

In test [3] the test system is advanced AD patients. In words: Compassionate use study: cognitive function and behavior (MMSE, ADL-siv). In kind it is in vivo, human. As for the experimental part:
as §1, §2, §3
The decline closely tracked the decline in PCK-ε levels, as illustrated in FIG. 1. The observed decline was due to a well-known phenomenon that follows PKC activation called “downregulation”. Sustained clinical improvements in these patients with advanced AD were mitigated by the downregulation of the bryostatin target, PKC-ε. From these preliminary observations the inventors hypothesized that an intermittent dosing regimen of bryostatin was more suitable for maintaining cognitive benefits in AD patients.

Setting [4] is: advanced AD patients, weekly dose of 25 μg/m^2, three consecutive weeks.

For the molecule `CCC/C=C/C=C/C(=O)O[C@H]1/C(=C/C(=O)OC)C[C@H]2C[C@H]([C@@H](C)O)OC(=O)C[C@H](O)C[C@@H]3C[C@H](OC(C)=O)C(C)(C)[C@](O)(C[C@@H]4C/C(=C/C(=O)OC)C[C@H](/C=C/C(C)(C)[C@]1(O)O2)O4)O3` [Bryostatin-1], the “total PKC-ε levels” value in test [1] is “increased”. Moreover, the “brain BDNF levels” value is on record as “did not result in elevated levels of brain BDNF” in test [2] (mice, 10 μg/m^2 i.v., 3 or 6 consecutive weeks); “some increase” in test [2] (mice, 15 μg/m^2, three consecutive weeks); “maximum increase” in test [2] (mice, 25 μg/m^2). Besides, the “brain BDNF” value in test [2] (mice, 25 μg/m^2, 3 weekly doses, 3 weeks no dosing, 3 more weekly doses) is given as “remained elevated”. The “BDNF (% of Control)” value in test [2] (cage 4: 25 μg/m^2 i.v. once weekly, 3 weeks) is 192.869 % of Control; in test [2] (cage 5: 25 μg/m^2 i.v., 3 on/3 off/3 on (9 weeks)) it was 149.023 % of Control; in test [2] (cage 6: 10 μg/m^2 i.v. once weekly, 3 weeks), 107.047 % of Control; in test [2] (cage 8: 10 μg/m^2 i.v. once weekly, 6 weeks) it was 99.137 % of Control; in test [2] (cage 18: 15 μg/m^2 i.v. once weekly, 3 weeks), 110.969 % of Control; in test [2] (cage 22 (regimen not listed in Tables 2/3)), 133.142 % of Control. Moreover, the “BDNF (% of Control)” value in test [2] (cage 24: 25 μg/m^2 i.v. once weekly, 2 weeks) is recorded as 135.095 % of Control. Besides, the “maintenance of cognitive benefits” value in test [3] (additional bryostatin dosing in weeks 5, 6 and 8-13) is “failed to maintain the observed cognitive benefits”. For the same molecule, the “Activities of Daily Living-Severe Impairment Version (ADL-siv)” value in test [3] (setting [4]) is listed as “improvements”. Also, in test [3] (setting [4]), the “Mini-Mental State Examination (MMSE) score” value is reported as “improvements”.

The record behind these values is patent US11173140B2, “Dosing regimens of PKC activators” (COGNITIVE RESEARCH ENTERPRISES, INC., priority 2015, dated 2021).
